Data published in patent US10117854B2, “Method for treating hepatic encephalopathy” (MEDDAY PHARMACEUTICALS, priority 2016, dated 2018).
Where two headings read alike, the source gives them in different places.

Legend:
[1] = tested on: BDL rats; assay: Open Field Test (behavioral test of hepatic encephalopathy); format: in vivo, rat; settings: for OpenField test results compared with high-dose biotin: data not shown
Method: Bile duct ligation (BDL) was used as a biliary cirrhosis model. All rats oh this group were operated on. They were randomly separated in two groups: BDL or simple laparotomy (SHAM, control-group). The BDL procedure was conducted as described previously (Kountouras J, Prolonged bile duct obstruction: a new experimental model for cirrhosis in the rat; Br J Exp Pathol 1984) and as controlled in our lab. Surgery was done under total anesthesia with […] isofluran (Aerrane, Baxter Maurepas) 3% mixed with air. Analgesia was done by sub-cutaneous injection of buprenorphin 2% (Buprécare 0.3 mg/ml, Axience) immediately before and after surgery. Rifaximin (Sigma Aldrich) was mixed with water at the dose of 50 mg/kg/d and began 3 days after the surgery. […] To assess the hepatic encephalopathy, the Open Field Test (BioSeb) was used, a behavioral test validated in BDL rats to explore neurological impairments (Leke, Plos One 2012; 7(5)). The test was done the day of sacrifice, in standardized experimental conditions (hour, place, light, noise). Each rat was placed in a square 1 m^2 box and was free to explore the arena during 6 minutes. Two areas were defined in the square, center and periphery. Mobility parameters were registered by a three-dimensional camera. The data analyzed after 6 minutes of experiments were: total distance travelled (cm), time of mobility (s), speed (cm/s), number of zone changes, distance travelled in the center and periphery zone, time spent in the center and periphery zone, number of rearing, total duration of rearing.

[2] = tested on: BDL rats; assay: Blood ammoniemia in bile duct ligated rats; format: in vivo, rat; settings: biotin 300 mg/kg of food (30 mg/kg BW/day), ANOVA p=0.01, FIG. 6
Method: Adult male Wistar rats (weight 175-200 g at the initiation of the surgical procedure) were obtained from the Janvier labs (Le Gesnest-Saint-Isle) and were used for the whole experiments.
Bile duct ligation (BDL) was used as a biliary cirrhosis model. All rats oh this group were operated on. They were randomly separated in two groups: BDL or simple laparotomy (SHAM, control-group). The BDL procedure was conducted as described previously (Kountouras J, Prolonged bile duct obstruction: a new experimental model for cirrhosis in the rat; Br J Exp Pathol 1984) and as controlled in our lab. Surgery was done under total anesthesia with inhalated isofluran (Aerrane, Baxter Maurepas) 3% mixed with air. Analgesia was done by sub-cutaneous injection of buprenorphin 2% (Buprécare 0.3 mg/ml, Axience) immediately before and after surgery.
(§1) The blood sample taken during the sacrifice was centrifuged and the plasma was used to determine the levels of hepatic transaminases, total and conjugated bilirubin and ammonia. Plasmatic cytokines (IL6, TNFa, IFNg) were determined by a multiplex commercial kit.

[3] = tested on: BDL rats
Method: The integrity of BBB was investigated by measuring the extravasation from intra-vascular compartment of dextran-Texas Red (Life Technologies) conjugated.
Six weeks after the surgery, all rats were anesthetized with inhaleted isofluran 3%. 0.75 ml of fluorochrome was injected in the femoral vein (Texas Red 10 kDa 10 mg/ml) and circulated during 6 minutes. […] To remove the intravascular localized dye, we did a large thoracotomy to perfuse 300 ml of cold PBS (40 ml/min with a peristaltic pump) through the left cardiac ventricle.
After decapitation, the brain was rapidly removed and the olfactory bulbs and brain stem eliminated with the cerebellum.
After grinding the right hemisphere by vigorously shaking and centrifugation, the amount of fluorescent dextran (μg/g) in supernatants was measured by fluorimetry (Tecan Infinite M200) at 620 nm upon excitation at 588 nm. The content of dye was valued by interpolation in standard curve.

[4] = tested on: IFNγ; assay: Plasmatic cytokines by multiplex kit; format: in vivo, rat; settings: BDL rats treated with biotin (300 mg/kg food)
Method: as §1

[5] = in vivo; cited from earlier work
[6] = tested on: rats, acute liver failure induced by single high dose of CCl4; settings: prior art; biotin 0.5 mg/kg BW single intraperitoneal injection, or oral with uncontrolled amount; cited from earlier work

Compound: O=C([O-])c1ccccc1.[Na+] [sodium benzoate, Sodium benzoate]
- OpenField test results compared with high-dose biotin ([1]; sodium benzoate 200 mg/kg/d in water): similar

Compound: CO[C@H]1/C=C/O[C@@]2(C)Oc3c(C)c(O)c4c(O)c(c5c(nc6cc(C)ccn65)c4c3C2=O)NC(=O)/C(C)=C\C=C\[C@H](C)[C@H](O)[C@@H](C)[C@@H](O)[C@@H](C)[C@H](OC(C)=O)[C@@H]1C [rifaximin, Rifaximin]
- OpenField test results compared with high-dose biotin ([1]; rifaximin 50 mg/kg/d in water): similar

Compound: O=C(O)CCCC[C@@H]1SC[C@@H]2NC(=O)N[C@@H]21 [biotin]
- hyperammonemia (blood ammoniemia) [2]: reduce hyperammonemia
- neurological impairements observed in the OpenField test ([1]; biotin 50 mg/kg of food (5 mg/kg of animal/day)): not high enough to have an effect
- neurological impairements observed in the OpenField test ([1]; biotin 300 mg/kg of food (30 mg/kg of animal/day), vs BDL rats without biotin): reduced
- neurological impairements observed in the OpenField test ([1]; biotin 300 mg/kg of food (30 mg/kg of animal/day), vs BDL rats without biotin, listed as Biotin): comportmental improvement
- intra-cerebral quantity of dextran (BBB permeability) ([3]; BDL rats, biotin 300 mg/kg of food, vs BDL rats on control diet): normalize
- intra-cerebral quantity of dextran (BBB permeability) ([3]; BDL rats, biotin 300 mg/kg of food, vs BDL rats on control diet, listed as Biotin): normalization of BBB permeability
- intra-cerebral quantity of dextran (BBB permeability) ([3]; biotin 50 mg/kg of food): did not reach normalization
- IFNγ levels in plasma [4]: decreased
- plasma half life [5]: about 2 hours
- serum ammonium level [6]: decrease the serum ammonium level
